Patent US8580812B2, “Heteroaryl amide analogues as P2X7 antagonists” (H. Lundbeck A/S, priority 2007, dated 2013)

Each compound was assayed against T1, P2X7 (Homo sapiens, UniProt Q99572) (assay: High Throughput P2X7 Calcium Mobilization Assay (Example 4A), antagonist activity). Details: SH-SY5Y cells, 50% decrease in fluorescence response of cells exposed to 80 μM BzATP.
T1 construct: host or cells: SH-SY5Y
T1 sequence (Q99572 1-595): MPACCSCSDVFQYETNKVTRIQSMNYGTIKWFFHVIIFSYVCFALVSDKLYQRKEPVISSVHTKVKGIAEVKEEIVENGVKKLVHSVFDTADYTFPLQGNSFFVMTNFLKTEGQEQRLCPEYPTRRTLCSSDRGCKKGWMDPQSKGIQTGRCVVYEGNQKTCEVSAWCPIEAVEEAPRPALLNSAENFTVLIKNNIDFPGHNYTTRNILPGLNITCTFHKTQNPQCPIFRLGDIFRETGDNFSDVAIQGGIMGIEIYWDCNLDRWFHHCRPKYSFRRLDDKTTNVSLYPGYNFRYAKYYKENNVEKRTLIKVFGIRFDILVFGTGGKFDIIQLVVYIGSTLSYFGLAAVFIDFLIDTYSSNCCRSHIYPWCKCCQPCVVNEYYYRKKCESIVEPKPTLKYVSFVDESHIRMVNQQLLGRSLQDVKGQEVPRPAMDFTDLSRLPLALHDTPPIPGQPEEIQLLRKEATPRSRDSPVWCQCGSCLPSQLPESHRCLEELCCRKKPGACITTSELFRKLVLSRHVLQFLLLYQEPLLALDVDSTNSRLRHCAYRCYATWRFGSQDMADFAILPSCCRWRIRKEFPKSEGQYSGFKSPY
Format: cell-based
Method: A. High Throughput P2X7 Calcium Mobilization Assay
SH-SY5Y cells, ATCC Number CRL-2266, (American Type Culture Collection, Manassas, Va.) are cultured under DMEM/High medium supplemented with 10% FBS, and 10 mM HEPES (Invitrogen Corp., Carlsbad, Calif.) in 5% CO2 and at 37° C. One day prior to the experiment, cells are plated at a density of 100,000 cells/well in a 96 well black/clear TC plate (Corning® Costar®, Sigma-Aldrich Co., St. Louis, Mo.). At the beginning of the experiment, the culture medium is removed and cells are incubated with 50 μL of 2.3 μM Fluo-4 AM dye (Invitrogen Corp.) in the assay solution (5 mM KCl, 9.6 mM NaH2PO4.H2O, 25 mM HEPES, 280 mM Sucrose, 5 mM Glucose, and 0.5 mM CaCl2; pH is adjusted to 7.4 with NaOH) for an hour at 37° C. After one hour dye incubation, wells are rinsed once with 50 μL assay solution, and are then incubated for an hour at room temperature with 100 μL assay solution containing the test compound. The final concentration of test compound generally ranges from 1 to 2500 nM; for positive control cells, no test compound is added. After the one hour incubation, plates are transferred to a FLIPR^TETRA instrument (Molecular Devices, Sunnyvale, Calif.) for calcium mobilization analysis.
For determination of antagonist activity, 50 μL of P2X7 agonist (2′(3′)-O-(4-benzoyl-benzoyl)adenosine 5′-triphosephate (BzATP; Sigma-Aldrich) in the assay solution is transferred using the FLIPR into the plate, such that the final agonist concentration is 80 μM (about EC50). In negative control cells, 50 μL of assay solution without agonist is added at this stage. The peak fluorescence signal over a 2 minute period is then measured.
First, the average maximum relative fluorescent unit (RFU) response from the negative control wells (no agonist) is subtracted from the maximum response detected for each of the other experimental wells. Second, average maximum RFU response is calculated for the positive control wells (agonist wells). Then, percent inhibition for each compound tested is calculated using the equation: Percent Inhibition=100−100×(Peak Signal in Test Cells/Peak Signal in Control Cells) The % inhibition data is plotted as a function of test compound concentration and test compound IC50 is determined using, for example, KALEIDAGRAPH software (Synergy Software, Reading, Pa.) best fit of the data to the equation: y=m1*(1/(1+(m2/m0)^m3)) where y is the percent inhibition, m0 is […], m1 is the maximum RFU, m2 corresponds to the test compound IC50 (the concentration required to provide a 50% decrease, relative to the response observed in the presence of agonist and without antagonist) and m3 is the Hill coefficient.

Compound | IC50
2-{[(3R)-3- aminopyrrolidin-1- yl]carbonyl}-N-[4- methyl-2-(4- methylphenyl)pentyl] pyrazolo[1,5-a]pyridine- 4-carboxamide [Compound 73] | ≤ 2000 nM
CC(C)CC(CNC(=O)c1cccn2nc(C(=O)N3C[C@@H](C)O[C@@H](C)C3)cc12)c1ccc(C(F)(F)F)cc1 (single isomer, unassigned) [Compound 100] | ≤ 2000 nM
CC(C)CC(CNC(=O)c1cccn2nc(C(=O)N3[C@H](C)COC[C@@H]3C)cc12)c1ccc(C(F)(F)F)cc1 (single isomer, unassigned) [Compound 102] | ≤ 2000 nM
CC(C)N[C@@H]1CCN(C(=O)c2cc3c(C(=O)NCC45CC6CC(CC(C6)C4)C5)cccn3n2)C1 [Compound 16, N-(adamantan-1-ylmethyl)-2-{[(3R)-3-(isopropylamino)pyrrolidin-1-yl]carbonyl}pyrazolo [l,5-a]pyridine-4-carboxamide] | ≤ 2000 nM
N[C@@H]1CCCN(C(=O)c2cc3c(C(=O)NCC45CC6CC(CC(C6)C4)C5)cccn3n2)C1 [Compound 17, N-(adamantan-1-ylmethyl)-2-{[(3R)-3-aminopiperidin-1-yl]carbonyl}pyrazolo [1,5-a]pyridine-4-carboxamide] | ≤ 2000 nM
COCCN(C)C(=O)c1cc2c(C(=O)NCC34CC5CC(CC(C5)C3)C4)cccn2n1 [Compound 18, 4-N-(adamantan-1-ylmethyl)-2-N-(2-methoxyethyl)-2-N-methylpyrazolo[1,5-a]pyridine-2,4-dicarboxamide] | ≤ 2000 nM
CN(C(=O)c1cc2c(C(=O)NCC34CC5CC(CC(C5)C3)C4)cccn2n1)c1ccccn1 [Compound 19, 4-N-(adamantan-1-ylmethyl)-2-N-methyl-2-N-pyridin-2-ylpyrazolo[1,5-a]pyridine-2,4-dicarboxamide] | ≤ 2000 nM
O=C(NCC12CC3CC(CC(C3)C1)C2)c1cccn2nc(C(=O)N3CCn4cncc4C3)cc12 [Compound 20, N-(adamantan-1-ylmethyl)-2-(5,6-dihydroimidazo[1,5-a]pyrazin-7(8H)-ylcarbonyl)pyrazolo [1,5-a]pyridine-4-carboxamide] | ≤ 2000 nM
CN(Cc1cccnc1)C(=O)c1cc2c(C(=O)NCC34CC5CC(CC(C5)C3)C4)cccn2n1 [Compound 21, 4-N-(adamantan-1-ylmethyl)-2-N-methyl-2-N-(pyridin-3-ylmethyl)pyrazolo[1,5-a]pyridine-2,4-dicarboxamide] | ≤ 2000 nM
O=C(NCC12CC3CC(CC(C3)C1)C2)c1cccn2nc(C(=O)N3CCOCC3)cc12 [Compound 22, N-(adamantan-1-ylmethyl)-2-(morpholin-4-ylcarbonyl)pyrazolo [1,5-a]pyridine-4-carboxamide] | ≤ 2000 nM
CCOC(=O)CN(C)C(=O)c1cc2c(C(=O)NCC34CC5CC(CC(C5)C3)C4)cccn2n1 [Compound 23, ethyl N-({4-[(adamantan-1-ylmethyl)carbamoyl]pyrazolo[1,5-a]pyridin-2-yl}carbonyl)-N-methylglycinate] | ≤ 2000 nM
O=C(NCC12CC3CC(CC(C3)C1)C2)c1cccn2nc(C(=O)N3CCn4cnnc4C3)cc12 [Compound 24, N-(adamantan-1-ylmethyl)-2-(5,6-dihydro[1,2,4]triazolo [4,3-a]pyrazin-7(8H)-ylcarbonyl)pyrazolo [1,5-a]pyridine-4-carboxamide] | ≤ 2000 nM
O=C(NCC12CC3CC(CC(C3)C1)C2)c1cccn2nc(CC(=O)N3CCOCC3)cc12 [Compound 25, N-(adamantan-1-ylmethyl)-2-(2-morpholin-4-yl-2-oxoethyl)pyrazolo[1,5-a]pyridine-4-carboxamide] | ≤ 2000 nM
CN(Cc1cncn1C)C(=O)c1cc2c(C(=O)NCC34CC5CC(CC(C5)C3)C4)cccn2n1 [Compound 26, 4-N-(adamantan-1-ylmethyl)-2-N-methyl-2-N-[(1-methyl-1H-imidazol-5-yl)methyl]pyrazolo[1,5-a]pyridine-2,4-dicarboxamide] | ≤ 2000 nM
CN(C)[C@@H]1CCN(C(=O)c2cc3c(C(=O)NCC45CC6CC(CC(C6)C4)C5)cccn3n2)C1 [Compound 27, N-(adamantan-1-ylmethyl)-2-{[(3R)-3-(dimethylamino)pyrrolidin-1-yl]carbonyl}pyrazolo [1,5-a]pyridine-4-carboxamide] | ≤ 2000 nM
CN(C(=O)c1cc2c(C(=O)NCC34CC5CC(CC(C5)C3)C4)cccn2n1)C1CCOC1 (stereo not shown) [Compound 28, 4-N-(adamantan-1-ylmethyl)-2-N-methyl-2-N-(tetrahydrofuran-3-yl)pyrazolo[1,5-a]pyridine-2,4-dicarboxamide] | ≤ 2000 nM
CCOC(=O)CN(C)Cc1cc2c(C(=O)NCC34CC5CC(CC(C5)C3)C4)cccn2n1 [Compound 29, ethyl N-({4-[(adamantan-1-ylmethyl)carbamoyl]pyrazolo[1,5-a]pyridin-2-yl}methyl)-N-methylglycinate] | ≤ 2000 nM
Cc1nc2c(c(=O)[nH]1)CN(C(=O)c1cc3c(C(=O)NCC45CC6CC(CC(C6)C4)C5)cccn3n1)CC2 [Compound 30, N-(adamantan-1-ylmethyl)-2-[(2-methyl-4-oxo-3,5,7,8-tetrahydropyrido[4,3-d]pyrimidin-6(4H)-yl)carbonyl]pyrazolo [1,5-a]pyridine-4-carboxamide] | ≤ 2000 nM
CCN(CC)[C@@H]1CCN(C(=O)c2cc3c(C(=O)NCC45CC6CC(CC(C6)C4)C5)cccn3n2)C1 [Compound 31, N-(adamantan-1-ylmethyl)-2-{[(3R)-3-(diethylamino)pyrrolidin-1-yl]carbonyl}pyrazolo [1,5-a]pyridine-4-carboxamide] | ≤ 2000 nM
O=C1CN(C(=O)c2cc3c(C(=O)NCC45CC6CC(CC(C6)C4)C5)cccn3n2)CCN1 [Compound 32, N-(adamantan-1-ylmethyl)-2-[(3-oxopiperazin-1-yl)carbonyl]pyrazolo [1,5-a]pyridine-4-carboxamide] | ≤ 2000 nM
CN(Cc1ccncc1)C(=O)c1cc2c(C(=O)NCC34CC5CC(CC(C5)C3)C4)cccn2n1 [Compound 33, 4-N-(adamantan-1-ylmethyl)-2-N-methyl-2-N-(pyridin-4-ylmethyl)pyrazolo[1,5-a]pyridine-2,4-dicarboxamide] | ≤ 2000 nM
Cn1ncc2c1CCN(C(=O)c1cc3c(C(=O)NCC45CC6CC(CC(C6)C4)C5)cccn3n1)C2 [Compound 34, N-(adamantan-1-ylmethyl)-2-[(1-methyl-1,4,6,7-tetrahydro-5H-pyrazolo[4,3-c]pyridin-5-yl)carbonyl]pyrazolo [1,5-a]pyridine-4-carboxamide] | ≤ 2000 nM
O=C(NC1CCOCC1)c1cc2c(C(=O)NCC34CC5CC(CC(C5)C3)C4)cccn2n1 [Compound 35, 4-N-(adamantan-1-ylmethyl)-2-N-(tetrahydro-2H-pyran-4-yl)pyrazolo[1,5-a]pyridine-2,4-dicarboxamide] | ≤ 2000 nM
O=C1NCC2(CCN(C(=O)c3cc4c(C(=O)NCC56CC7CC(CC(C7)C5)C6)cccn4n3)CC2)O1 [Compound 36, N-(adamantan-1-ylmethyl)-2-[(2-oxo-1-oxa-3,8-diazaspiro[4.5]dec-8-yl)carbonyl]pyrazolo [1,5-a]pyridine-4-carboxamide] | ≤ 2000 nM
CN(C(=O)c1cc2c(C(=O)NCC34CC5CC(CC(C5)C3)C4)cccn2n1)C1CCOCC1 [Compound 37, 4-N-(adamantan-1-ylmethyl)-2-N-methyl-2-N-(tetrahydro-2H-pyran-4-yl)pyrazolo[1,5-a]pyridine-2,4-dicarboxamide] | ≤ 2000 nM
